According to patent US6458872B1, “Benzotriazole UV absorbers having enhanced durability” (Ciba Specialty Chemicals Corporation, priority 1997, dated 2002):
Entries after “also recorded” stand apart in the source; their conditions may differ.

What was measured:
[1] = UV absorption data (Example 74); format: physicochemical; conditions: for Absorbance @ 375 nm: 20 mg/l concentrations, not the molar extinction values
Experimental: In the following examples the absorbance at 375 nm is reported for 20 mg/l concentrations. This is not the molar extinction values.

[2] = Yellowness color of solutions in butyl acetate, Macbeth Color-Eye (Example 75); format: physicochemical; conditions: 30 mg/100 mL in butyl acetate; for DE: corresponding Yellowness Index value; for b: yellowness, Macbeth Color-Eye
Experimental: The following examples show the difference in color between some of the instant compounds as measured by a Macbeth Color-Eye instrument at a concentration of 30 mg/100 mL in butyl acetate. […] In the table, the compounds are listed by increasing b value. The instrument measures yellowness as b and DE is the corresponding Yellowness Index value.

[3] = Durability in polycarbonate film, 2000 hours (Example 81); format: physicochemical; conditions: for % Loss / Absorbance (max) Loss units: 2000 hrs; for % Loss / Absorbance (max) Loss units / Absorbance (max) 2000 hrs: BB 2.19 wt %, J 1.81 wt %; for Absorbance (max) 0 hrs: BB 2.19 wt % (352 nm), J 1.81 wt % (344 nm)
Experimental: The durability of representative benzotriazoles in thermoplastic substrates is determined by incorporating various test compounds into solvent cast films of poly(vinyl chloride), polycarbonate and polystyrene resins. The free standing films are mounted into cardboard holders, secured in metal frames and exposed in an Atlas […] […] Loss of UV absorber is determined by monitoring the loss of diagnostic UV absorption as described earlier. Performance is measured by a change in color or the physical integrity of the film. Polycarbonate flake (LEXAN® 145, General Electric) is dissolved in methylene chloride at room temperature along with between 1 and 3% by weight of test benzotriazole, based on the polycarbonate. Films are cast using a calibrated drawdown bar to prepare 1 mil thick film after drying. […] Weather-meter.

[4] = UV absorption data (Example 74); format: physicochemical; design: ε @ λ max: unit not given beside the values
[5] = Loss of UV absorber from high solids thermoset acrylic clear coat, Xenon Arc Weather-Ometer (Example 77); format: physicochemical; conditions: after 1211 hours Xenon arc exposure; clear coat with 1% hindered amine; UV absorber at 5 mmol % by weight
Experimental: To ascertain the effect on thermal durability and loss rate from a high solids thermoset acrylic coating of various 2H-benzotriazole UV absorbers substituted by a variety of electron withdrawing and electron donating groups, the following tests are carried out.
A high solids thermoset acrylic clear coat is prepared by mixing an experimental acrylic polyol resin and hexamethoxymethylmelamine (Resimene® 747, Monsanto) at a solids ratio of 60/40. The dodecylbenzene sulfonic acid catalyst (Nacure® 5225; King Industries) is added at 0.70% by weight. A flow aid Modaflow® (Monsanto) is added at 0.25% by weight to form a model acrylic melamine resin system.
The model clear coat is reduced with xylene to a viscosity of 26-27 second using a Zahn #2 cup and applied via a conventional air spray at 50 psi (3.5 Kg/cm^2) over a 1″×3″ (2.54 cm×7.62 cm) quartz slide. Cure is achieved by baking the slide for 30 minutes at 260° F. (127° C.). The clear coat is stabilized with 1% by weight of a hindered amine light stabilizer, bis-(1-octyloxy-2,2,6,6-tetramethylpiperidin-4-yl)sebacate, (TINUVIN® 123, Ciba-Geigy). The various test benzotriazole UV absorbers are incorporated at the 5 mmol % by weight in the clear coat. The film thickness on the quartz slides range from 1.15 to 1.41 mils (0.029 to 0.036 mm).
The films on the quartz slides are weathered according to the following conditions in Xenon Arc Weather-Ometer with a controlled irradiance at 6500 W, using inner quartz and outer borosilicate S-type filter. The irradiation cycle is as follows: 40 minutes of straight irradiation with no water spray, followed by 20 minutes of light plus front spray, followed by 60 minutes of light irradiation and finally by 60 minutes dart plus rear spray (condensation). The setting is at 0.55 W/M^2 at 340 nm, 1.98 kJ/hour. In the light cycle the black panel temperature is controlled at 70±2° C. The relative humidity in the light cycle is in the range of 50-55% and in the dark cycle 100%. The absorbance of the long wavelength UV band as a function of Xenon arc weathering hours are recorded in the table below.
To follow the loss of UV absorbers from the clear coats, UV spectra are measured initially and after weathering at regular time intervals. The UV spectrophotometer measures absorbance linearly up to 5.5 absorbance units using a reference beam attenuation technique.
This is tested by following the ratio of absorbance of the band at about 300 nm and the band at about 340 nm.
The data in the table below are based on formula A after 1211 hours of exposure of the clear coats containing the test benzotriazole UV absorbers.

[6] = Loss of UV absorber from high solids thermoset acrylic melamine clear coat, Xenon-Arc X180 cycle (Example 78); format: physicochemical
From the text: Following the general procedure of Example 77, a number of additional benzotriazole test compounds are incorporated into a high solids thermoset acrylic melamine resin at such concentrations between 1.93 and 3% by weight to give equal molar concentrations of test benzotriazole in equal film thickness, and sufficient to give a starting absorbance of approximately 2.0 absorbance units.
The test discs are exposed in a Xenon-Arc Weather-Ometer at X180 cycle (0.45 Watts/M^2). The initial UV absorbance is measured followed by measurements at roughly 250 hour intervals for the first 2000 hours and every 500 hours thereafter. Each clear coat also contains 1% by weight of a hindered amine light stabilizer, bis-(1-octyloxy-2,2,6,6-tetramethylpiperidin-4-yl) sebacate, as well.

[7] = Loss of UV absorber from high solids thermoset acrylic melamine resin, 1002 hours (Example 79); format: physicochemical; conditions: 1002 hours exposure; starting absorbance approximately 2.0
Experimental: Following the general procedure of Example 77, representative benzotriazole test compounds are incorporated into a high solids thermoset acrylic melamine resin at concentrations between 1.93 and 3% by weight to give equal molar concentrations of the test benzotriazole in equal film thickness and sufficient to give a starting absorbance of approximately 2.0 absorbance units. The test samples are exposed as described in Example 77 for 1002 hours.

[8] = after 1253 hours of exposure, starting absorbance approximately 2.0, 1% hindered amine

CC(C)(C)CC(C)(C)c1ccc(O)c(-n2nc3ccc(C(F)(F)F)cc3n2)c1 [BB, 5-trifluoromethyl-2-(2-hydroxy-5-tert-octylphenyl)-2H-benzotriazole]
Absorbance @ 375 nm [1]: 0.33 | DE [2]: 0.27 | b [2]: 0.20 | % Loss [3]: 0.6% | Absorbance (max) Loss units [3]: 0.016 | Absorbance (max) 0 hrs [3]: 2.654 | Absorbance (max) 2000 hrs [3]: 2.638 | ε @ λ max [4]: 14,000 | λ max nm [4]: 348 nm

Oc1ccc(C(F)(F)F)cc1-n1nc2ccccc2n1 [EE, 2-(2-hydroxy-5-trifluoromethylphenyl)-2H-benzotriazole]
Absorbance @ 375 nm [1]: 0.03 | red region absorbance ([1]; in words, upper regions (above 350 nm) of the UV spectra): poor red region absorbance | melting point: 119 to 120 °C | ε @ λ max [4]: 20,700 | λ max nm [4]: 328 nm

CC(C)(C)c1cc(CCC(=O)O)cc(-n2nc3ccc(C(F)(F)F)cc3n2)c1O [Example 39, 3-(5-Trifluoromethyl-2H-benzotriazol-2-yl)-5-tert-butyl-4-hydroxyhydrocinnamic Acid]
melting point: 166 °C

CC(C)(C)CC(C)(C)c1ccc(O)c(-n2nc3ccccc3n2)c1 [J]
Units Absorbance Loss [5]: 0.4134 | % Loss [3]: 7.5% | Absorbance (max) Loss units [3]: 0.184 | Absorbance (max) 0 hrs [3]: 2.454 | Absorbance (max) 2000 hrs [3]: 2.270

CC(C)(C)CC(C)(C)c1cc(-n2nc3ccccc3n2)c(O)c(C(C)(C)c2ccccc2)c1 [Q, 2-(2-hydroxy-3-α-cumyl-5-tert-octylphenyl)-2H-benzotriazole]
Absorbance @ 375 nm [1]: 0.28 | DE [2]: 0.07 | b [2]: −0.02 | Units Absorbance Loss [5]: 0.2492 | Units Absorbance Loss [6, 8]: 0.2351 | Units Absorbance Loss ([6]; after 1264 hours of exposure): 0.2293 | Units Absorbance Loss ([6]; after 1489 hours of exposure): 0.287 | Units Absorbance Loss ([6]; after 1518 hours of exposure): 0.2662 | Units Absorbance Loss ([6]; after 2521 hours of exposure): 0.4054 | Units of Absorbance Loss [7]: 0.28 | ε @ λ max [4]: 16,500 | λ max nm [4]: 345 nm

CC(C)(C)CC(C)(C)c1cc(-n2nc3ccc(C(F)(F)F)cc3n2)c(O)c(C(C)(C)c2ccccc2)c1 [S, 5-trifluoromethyl-2-(2-hydroxy-3-α-cumyl-5-tert-octylphenyl)-2H-benzotriazole]
Absorbance @ 375 nm [1]: 0.35 | DE [2]: 1.28 | b [2]: 1.05 | Units Absorbance Loss [6, 8]: 0.1271 | Units Absorbance Loss ([6]; after 1264 hours of exposure): 0.0921 | Units Absorbance Loss ([6]; after 1489 hours of exposure): 0.1547 | Units Absorbance Loss ([6]; after 1518 hours of exposure): 0.1116 | Units Absorbance Loss ([6]; after 2521 hours of exposure): 0.2192 | durability (low loss rate absorbance values after exposure) ([6]; in words, summary of the tables of Example 78): significantly more durable; also recorded: especially durable | ε @ λ max [4]: 15,000 | λ max nm [4]: 348 nm

CCCCOc1ccc(-n2nc3ccccc3n2)c(O)c1 [Z, 2-(2-hydroxy-4-n-butoxyphenyl)-2H-benzotriazole]
Units of Absorbance Loss [7]: 1.58
